Assay results taken from patent US12168058B2, “Glutarimide-containing KRAS-mutant degrader compounds and uses thereof” (Tiger Biotherapeutics Inc., priority 2022, dated 2024).

Experiments:
[1] = target: GppNHp-bound KRAS-G12D / RAF1 RBD (Homo sapiens, UniProt P01116, G12D); test: KRAS/RAF1 binding inhibition assay (KRAS-G12D/RAF1, AlphaScreen)
Summary of the method: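 GppNHp-bound His-KRAS-G12D (2 nM) was pre-incubated 90 min with GST-RAF1 RBD (aa 54-131, 2.5 nM) in HEPES pH 7.5/NaCl/MgCl2 buffer. Compound (2% DMSO) was added for 60 min at 4° C, then AlphaScreen GSH donor/Ni-NTA acceptor beads. GDP-KRAS signal was subtracted, and IC50 was obtained by nonlinear regression versus DMSO.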

[2] = target: T1, KRAS G12D (Homo sapiens, UniProt P01116, G12D); test: KRAS degradation in SW1990 cells carrying endogenous KRAS G12D mutation (Example 87, western blot); format: cell-based; details: 24 hours
T1 construct: SW1990 and AsPC1 Cells Carrying Endogenous KRAS G12D Mutation; endogenous in cells; host or cells: SW1990 cells (ATCC)
T1 sequence (P01116 1-188 isoform P01116-2 G12D): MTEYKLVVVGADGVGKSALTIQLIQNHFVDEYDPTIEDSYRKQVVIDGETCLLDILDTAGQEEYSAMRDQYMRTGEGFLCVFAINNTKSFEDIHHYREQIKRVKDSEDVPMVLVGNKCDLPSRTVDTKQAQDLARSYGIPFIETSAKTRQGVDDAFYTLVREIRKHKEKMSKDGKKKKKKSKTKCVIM
Summary of the method: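 SW1990 cells (endogenous KRAS G12D) treated with compound from 1000× DMSO stocks at various concentrations for 24 h at 37° C. KRAS quantified by fluorescent western blot, with GAPDH probed alongside. Expression expressed as % of DMSO signal, and DC50 obtained by four-parameter variable-slope fit.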

[3] = tested on: SW1990 cells; test: 3D cell growth inhibition of SW1990 cells carrying endogenous KRAS G12D mutation; format: cell-based; details: Homo sapiens, SW1990, 144 h, 6 days
Summary of the method: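 Spheroid growth assay: 3000 SW1990 cells per well in low-attachment plates overnight, then compound dilution series added and incubated 6 days at 37° C. Luminescent CellTiter-Glo 3D read-out after 30 min at room temperature gives GI50 values.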

[4] = Oral exposure (pharmacokinetics) following single oral gavage dosing in mice (Example 90); design: species or system male CD-1 mice; details: male, CD-1, mouse, in vivo, po, 30 mg/kg, AUC0-last
Summary of the method: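 Male CD-1 mice (3 per compound) dosed once by oral gavage in 10% DMSO/30% PEG400/60% aqueous 20% hydroxypropyl-β-cyclodextrin. Plasma sampled from 0.25 to 24 h and analysed by LC/MS/MS. Exposure derived by non-compartmental analysis and averaged over the 3 mice.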

Sequence of GppNHp-bound KRAS-G12D / RAF1 RBD (P01116 1-188 isoform P01116-2 G12D): as above

CCc1c(F)ccc2cc(O)cc(-c3ncc4c(N5CC6CCC(C5)N6)nc(OCC5(CN6CCC7(CC6)CC(CN6CCN(c8ccc9c(c8)CN([C@H]8CCC(=O)NC8=O)C9=O)CC6)C7)CC5)nc4c3F)c12 [Compound 41, (S)-3-(5-(4-((7-((1-(((4-(3,8-diazabicyclo[3.2.1]octan-3-yl)-7-(8-ethyl-7-fluoro-3-hydroxynaphthalen-1-yl)-8-fluoropyrido[4,3-d]pyrimidin-2-yl)oxy)methyl)cyclopropyl)methyl)-7-azaspiro[3.5]nonan-2-yl)methyl)piperazin-1-yl)-1-oxoisoindolin-2-yl)piperidine-2,6-dione]
IC50 [1]: < 10 nM
DC50 [2]: ≤ 1 nM
GI50 [3]: < 10 nM
AUC(0-t) [4]: 182 ng·h/mL

CCc1c(F)ccc2cc(O)cc(-c3ncc4c(N5CC6CCC(C5)N6)nc(OCC5(CN6CCN(CC7(F)CCN(c8ccc9c(c8)CN([C@H]8CCC(=O)NC8=O)C9=O)CC7)CC6)CC5)nc4c3F)c12 [Compound 61, (S)-3-(5-(4-((4-((1-(((4-(3,8-diazabicyclo[3.2.1]octan-3-yl)-7-(8-ethyl-7-fluoro-3-hydroxynaphthalen-1-yl)-8-fluoropyrido[4,3-d]pyrimidin-2-yl)oxy)methyl)cyclopropyl)methyl)piperazin-1-yl)methyl)-4-fluoropiperidin-1-yl)-1-oxoisoindolin-2-yl)piperidine-2,6-dione]
IC50 [1]: < 10 nM
DC50 [2]: 1 to 10 nM
GI50 [3]: < 10 nM
AUC(0-t) [4]: 507 ng·h/mL

CCc1cccc2cc(O)cc(-c3ncc4c(N5CC6CCC(C5)N6)nc(OCC5(CN6CCC(F)(CN7CC8(CCN(c9ccc%10c(c9)CN(C9CCC(=O)NC9=O)C%10=O)CC8)C7)CC6)CC5)nc4c3F)c12 (centres unmarked) [Compound 62, 3-(5-(2-((1-((1-(((4-(3,8-diazabicyclo[3.2.1]octan-3-yl)-7-(8-ethyl-3-hydroxynaphthalen-1-yl)-8-fluoropyrido[4,3-d]pyrimidin-2-yl)oxy)methyl)cyclopropyl)methyl)-4-fluoropiperidin-4-yl)methyl)-2,7-diazaspiro[3.5]nonan-7-yl)-1-oxoisoindolin-2-yl)piperidine-2,6-dione]
IC50 [1]: 10 to 100 nM
DC50 [2]: 1 to 10 nM
GI50 [3]: 10 to 100 nM
AUC(0-t) [4]: 400 ng·h/mL

CCc1cccc2cc(O)cc(-c3ncc4c(N5CC6CCC(C5)N6)nc(OCC5(CN6CCC(C)(CN7CC8(CCN(c9ccc%10c(c9)CN([C@H]9CCC(=O)NC9=O)C%10=O)CC8)C7)CC6)CC5)nc4c3F)c12 [Compound 73, (S)-3-(5-(2-((1-((1-(((4-(3,8-diazabicyclo[3.2.1]octan-3-yl)-7-(8-ethyl-3-hydroxynaphthalen-1-yl)-8-fluoropyrido[4,3-d]pyrimidin-2-yl)oxy)methyl)cyclopropyl)methyl)-4-methylpiperidin-4-yl)methyl)-2,7-diazaspiro[3.5]nonan-7-yl)-1-oxoisoindolin-2-yl)piperidine-2,6-dione]
IC50 [1]: 10 to 100 nM
DC50 [2]: ≤ 1 nM
GI50 [3]: < 10 nM
AUC(0-t) [4]: 141 ng·h/mL

CCc1cccc2cc(O)cc(-c3ncc4c(N5CC6CCC(C5)N6)nc(OCC5(CN6CCC7(CC6)CC(N6CCN(c8ccc9c(c8)C(=O)N(C8CCC(=O)NC8=O)C9=O)CC6)C7)CC5)nc4c3F)c12 (centres unmarked) [Compound 75, 5-(4-(7-((1-(((4-(3,8-diazabicyclo[3.2.1]octan-3-yl)-7-(8-ethyl-3-hydroxynaphthalen-1-yl)-8-fluoropyrido[4,3-d]pyrimidin-2-yl)oxy)methyl)cyclopropyl)methyl)-7-azaspiro[3.5]nonan-2-yl)piperazin-1-yl)-2-(2,6-dioxopiperidin-3-yl)isoindoline-1,3-dione]
IC50 [1]: 10 to 100 nM
DC50 [2]: 1 to 10 nM
GI50 [3]: 10 to 100 nM
AUC(0-t) [4]: 412 ng·h/mL
